# Test results from patent publication US20230293629A1, “METHODS FOR ATTENUATING RELEASE OF INFLAMMATORY MEDIATORS AND PEPTIDES USEFUL THEREIN” (BIOMARCK PHARMACEUTICALS LTD., priority 2006, published 2023).
# Several values for one entry are separate records, joined by “and”; a condition that tells them apart may be missing. Equal values may be shown once. Where a SMILES comes first, the peptide text is derived from it. Where no end group is shown, it is not given here. The star is where a group is joined. Myristoyl = CCCCCCCCCCCCCC(=O)*
# Experiments:
# [1] = test system: NK-92 cells; assay: PMA-stimulated granzyme release from NK-92 cells (BLT hydrolysis); format: cell-based, human; conditions: 50 μM test peptide, two hour incubation with 100 nM PMA
# Protocol: Three types of human leukocyte cell lines, specifically the promyelocytic cell line HL-60 clone 15, the monocytic cell line U937, and the lymphocyte natural killer cell line NK-92 were purchased from American Type Culture Collection (ATCC; Rockville, MD). HL-60 clone 15 cells (ATCC CRL-1964) were maintained in medium consisting of RPMI 1640 with L-glutamine supplemented with 10% heat-inactivated fetal bovine serum (Gibco; Invitrogen Co., Carlsbad, CA), 50 IU/ml penicillin, 50 μg/mL streptomycin, and 25 mM HEPES buffer, pH 7.8, at 37° C. in an atmosphere containing 5% CO2. […] Viability of cells harvested for experiments was assessed by trypan blue exclusion and populations of cells with viability >95% were used. […]
# For measurements of released MPO from neutrophils and released lysozyme from U937 cells, we were able to quantify secretion by using as standards human MPO and […], respectively. For released EPO from HL-60 clone 15 cells and for released granzyme from NK-92 cells, no standards were available to use for quantification. […] To measure intracellular EPO in HL-60 clone 15 cells and intracellular granzyme in NK-92 cells, appropriate aliquots of 0.1% triton X-100-lysed cells were taken for quantification of intracellular granule proteins as described below. All treatments were expressed as percentage of control to minimize variability between cultures. […]
# [2] = test system: ozone-induced neutrophil migration; assay: Mouse model of ozone-induced COPD: neutrophil migration, IL-6, KC, IFNγ in BAL fluid; format: in vivo, mice; conditions: for Concentration of IFNγ in BAL fluid / Concentration of KC in BAL fluid / Concentration of IL-6 in BAL fluid: 25 μL 1.0 mM peptide intratracheal 30 min before 2 h ozone; for Concentration of IFNγ in BAL fluid: PBS+ozone 8.6, forced air 5.0; for Concentration of KC in BAL fluid: PBS+ozone 466.6, forced air 36.3; for Concentration of IL-6 in BAL fluid: PBS+ozone 1041.3, forced air 43.2
# Protocol: Ten-week-old Balb/C female mice were obtained from Charles River laboratories and housed under NIH guidelines in groups of 5 per cage. The animals received standard rodent diet and filtered water ad libitum. Three treatment groups of mice, 5 animals in each group, were each anesthetized by intraperitoneal injection of Ketamine (100 mg/kg) and Xylazine (20 mg/kg) and then pretreated by intratracheal administration with 25 μL of either PBS alone, or a solution of 1.0 mM MANS peptide in PBS, or a solution of a 1.0 mM of an acetylated MANS-fragment-peptide Ac-[…] designated as acetylated SEQ ID NO: 106 in PBS. After 30 minutes, the animals were then placed in the appropriate custom-made chamber for ozone or forced air exposures. The animals were exposed to ozone for 2 hours (at ozone concentrations of 1-10 ppm by a slightly modified method described by Haddad et al, 1995. (Haddad E-B, Salmon M, Sun J, Liu S, Das A, Adcock I, Barnes P J, and Chung K F, FEBS Letters, 363:285-288, 1995). The ozone was generated using an ozone generator apparatus model OL80F/B from OzoneLab, Burton, British Columbia, Canada. Ozone concentration was continuously monitored using a Teledyne Photometric 03 Analyzer (model 400E, Teledyne Instruments, City of Industry, CA). Two additional groups of mice, each without any pretreatment, were either exposed to ozone under the same conditions or exposed to forced air under conditions similar to the ozone treatment group but absent ozone. After exposure, the animals were sacrificed by exsanguination and the lungs were serially lavaged 2 times with 1.0 mL aliquots of PBS. The collected bronchoalveolar lavage (BAL) fluid was centrifuged to remove the cells for subsequent counting and differential analysis. Recovered lavage fluid was used for protein and additional analysis of IL-6, IFNγ, and KC (murine IL-8 analog) by ELISA assay (assay kits obtained from R&D Systems, Minneapolis, MN).
# The percent inhibition of neutrophil migration into the BAL fluid as a function of treatment groups and relative to a control group treated with PBS alone are provided in the table.
# [3] = after ozone exposure, vs. PBS control, listed as acetylated SEQ ID NO:106
compound,measurement,setting,value
"CCCCCCCCCCCCCC(=O)NCC(=O)N[C@H](C(=O)N[C@@H](C)C(=O)N1CCC[C@H]1C(=O)N[C@@H](C)C(=O)N[C@@H](C)C(=O)N[C@@H](CCC(=O)O)C(=O)NCC(=O)N[C@@H](C)C(=O)NCC(=O)N[C@@H](C)C(=O)N[C@@H](CCC(=O)O)C(=O)N[C@H](C(=O)N[C@@H](CCCCN)C(=O)N[C@@H](CCCNC(=N)N)C(=O)N[C@@H](C)C(=O)N[C@@H](CO)C(=O)N[C@@H](C)C(=O)N[C@@H](CCC(=O)O)C(=O)N[C@@H](C)C(=O)N[C@@H](CCCCN)C(=O)N[C@@H](CCC(N)=O)C(=O)N[C@@H](C)C(=O)N[C@@H](Cc1ccccc1)C(=O)O)C(C)C)[C@@H](C)O [RNS, reference compound] (Myristoyl-GTAPAAEGAGAEVKRASAEAKQAF-OH; C-terminus assumed)",% Inhibition Granzyme,[1],29.5%
CCCCCCCCCCCCCC(=O)NCC(=O)N[C@@H](C)C(=O)N[C@@H](CCC(N)=O)C(=O)N[C@@H](Cc1ccccc1)C(=O)N[C@@H](CO)C(=O)N[C@@H](CCCCN)C(=O)N[C@H](C(=O)N[C@@H](C)C(=O)N[C@@H](C)C(=O)N[C@@H](CCCCN)C(=O)NCC(=O)N[C@@H](CCC(=O)O)C(=O)N[C@@H](C)C(=O)N[C@@H](C)C(=O)N[C@@H](C)C(=O)N[C@@H](CCC(=O)O)C(=O)N[C@@H](CCCNC(=N)N)C(=O)N1CCC[C@H]1C(=O)NCC(=O)N[C@@H](CCC(=O)O)C(=O)N[C@@H](C)C(=O)N[C@@H](C)C(=O)N[C@H](C(=O)N[C@@H](C)C(=O)O)C(C)C)[C@@H](C)O [MANS] (Myristoyl-GAQFSKTAAKGEAAAERPGEAAVA-OH; C-terminus assumed),Concentration of IFNγ in BAL fluid,[2],approximately 7.4 pg/mL
same,Concentration of KC in BAL fluid,[2],approximately 183.6 pg/mL
same,Concentration of IL-6 in BAL fluid,[2],approximately 364.5 pg/mL
same,% Inhibition of neutrophil migration into BAL fluid,"[2]; Balb/C mice, intratracheal pretreatment with 25 μL of 1.0 mM peptide in PBS 30 minutes before 2 hours ozone exposure, relative to control group treated with PBS alone",93.0%
same,effect on interferon-γ levels,[2]; after ozone exposure,little effect
same,reduced neutrophil cell infiltration in the BAL fluid after ozone exposure,[2]; vs. PBS control,93%±10%
same,% Inhibition Granzyme,[1],76.0%
Ac-GAQFSKTAAK [Ac-GAQFSKTAAK],Concentration of IFNγ in BAL fluid,[2],approximately 3.6 pg/mL
same,Concentration of KC in BAL fluid,[2],approximately 159.7 pg/mL
same,Concentration of IL-6 in BAL fluid,[2],approximately 130.4 pg/mL
same,effect on interferon-γ levels,[2]; after ozone exposure,little effect
same,diminished IL-6 levels / inhibition of IL-6 levels in BAL fluid,[2]; [3],91.3%±15% and ~91%
same,diminished KC concentrations / inhibition of KC levels in BAL fluid,[2]; [3],71.3%±10% and ~71%
same,reduced neutrophil cell infiltration in the BAL fluid after ozone exposure,[2]; vs. PBS control,81%±10%
